{"source": "patent US20120238596A1", "about": "“FORMULATIONS COMPRISING PALONOSETRON” (DR. REDDY'S LABORATORIES, INC., priority 2008, published 2012)", "origin": "cited, not measured here", "biological_target": "T1, serotonin subtype 3 (5-HT3) receptor (Homo sapiens, UniProt P46098)", "T1 sequence (P46098 24-478)": "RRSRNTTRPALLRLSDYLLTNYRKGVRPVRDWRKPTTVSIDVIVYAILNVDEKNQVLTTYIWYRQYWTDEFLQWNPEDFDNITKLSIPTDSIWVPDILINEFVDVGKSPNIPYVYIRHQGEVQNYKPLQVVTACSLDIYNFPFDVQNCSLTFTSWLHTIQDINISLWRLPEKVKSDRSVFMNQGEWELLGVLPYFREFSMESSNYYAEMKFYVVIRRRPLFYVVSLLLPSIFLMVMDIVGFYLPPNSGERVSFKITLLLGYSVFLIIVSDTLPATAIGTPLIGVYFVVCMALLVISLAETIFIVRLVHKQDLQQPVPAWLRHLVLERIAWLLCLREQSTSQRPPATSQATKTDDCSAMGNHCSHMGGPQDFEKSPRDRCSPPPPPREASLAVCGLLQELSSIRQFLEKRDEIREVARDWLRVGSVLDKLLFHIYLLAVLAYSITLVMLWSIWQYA", "data": [{"smiles": "Cl.O=C1c2cccc3c2[C@H](CCC3)CN1[C@@H]1CN2CCC1CC2", "note": "[Palonosetron hydrochloride, (3a5)-2-[(S)-1-Azabicyclo [2.2.2]oct-3-yl]-2,3,3a,4,5,6-hexahydro-1-oxo-1H-benz [de]isoquinoline hydrochloride]", "values": [{"measurement": "binding affinity for 5-HT3 receptor", "result": "strong binding affinity"}]}]}
